Experimental findings from patent US20050119240A1, “1-methyl-20-epi-vitamin d derivative” (priority 2000, published 2005) are described below.

The target of this assay is T1, Bovine thymus 1α,25-dihydroxyvitamin D3 receptor (VDR) (Bos taurus, UniProt Q28037).
T1 sequence (Q28037 1-426): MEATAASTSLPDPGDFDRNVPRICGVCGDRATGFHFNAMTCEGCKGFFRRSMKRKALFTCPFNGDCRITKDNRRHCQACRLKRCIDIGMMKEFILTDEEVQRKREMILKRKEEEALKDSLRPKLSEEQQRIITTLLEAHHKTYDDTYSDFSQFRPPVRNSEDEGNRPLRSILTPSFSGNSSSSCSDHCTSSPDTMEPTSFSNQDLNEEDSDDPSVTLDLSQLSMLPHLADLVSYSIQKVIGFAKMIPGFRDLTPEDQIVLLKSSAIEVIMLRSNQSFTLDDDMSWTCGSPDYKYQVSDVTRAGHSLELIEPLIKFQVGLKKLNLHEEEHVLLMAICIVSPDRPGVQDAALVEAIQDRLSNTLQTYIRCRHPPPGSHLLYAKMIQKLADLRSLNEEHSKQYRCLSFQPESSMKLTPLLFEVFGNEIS
The settings on record: relative value with that of 1α,25-dihydroxyvitamin D3 taken as 100; [3H]-1α,25-dihydroxyvitamin D3 0.1 nM, incubation overnight at 4° C.

Regarding `C=C1/C(=C\C=C2/CCC[C@]3(C)[C@@H]([C@@H](C)CCCC(C)(C)O)CC[C@@H]23)C[C@H](O)C[C@]1(C)O` [Compound 4, (5Z,7E)-(1S,3S,20S)-1Methyl-9,10-seco-5,7,10(19)-cholestatriene-1,3,25-triol], the VDR binding properties was 1.

Take `C=C1/C(=C\C=C2/CCC[C@@]3(C)C2CCC3[C@@H](C)CCCC(C)(C)O)C[C@@H](O)C[C@]1(C)O` (stereo partly drawn) [Compound 6, (5Z,7E)-(1S,3R,20S)-1-Methyl-9,10-seco-5,7,10(19)-cholestatriene-1,3,25-triol]: the VDR binding properties is 1.

Consider `C=C1C(=CC=C2CCCC3(C)C2CCC3C(C)CCCC(C)(C)O)CC(O)CC1(C)O` [Compound 9, (5Z,7E)-(1R,3R,20S)-1-Methyl-9,10-seco-5,7,10(19)-cholestatriene-1,3,25-triol], for which the VDR binding properties turned out to be 0.017.

For the compound `C=C1/C(=C\C=C2/CCC[C@@]3(C)C2CCC3[C@@H](C)CCCC(C)(C)O)C[C@H](O)C[C@@]1(C)O` (stereo partly drawn) [Compound 11, (5Z,7E)-(1R,3S,20S)-1-Methyl-9,10-seco-5,7,10(19)-cholestatriene-1,3,25-triol], the VDR binding properties was 0.004.
